Values after ≈ are worked out from the molar mass of the structure shown. Where two headings read alike, the source gives them in different places.
Experiments:
Water solubility = format: physicochemical; conditions: n = 4
[1] = Pharmacokinetics after PO administration in mice; format: in vivo; conditions: for BA: vs IV AUCinf at 1 mg/kg; for AUC(0-t): read-out: AUC24h; for Cmax: read-out: Cmax,1; for Tmax: po
Procedure: Male ICR mice (7 weeks old, […]; Samtako, Osan, Korea) were acclimated to the animal facility at Kyungpook National University for one week with free access to animal chow and water. In the per oral administration (PO) groups, the mice were fasted for 14–16 h prior to the administration of 2-QBA.
After the PO administration of 2-QBA (2 mg/kg in 5 mL of saline containing 10% DMSO) using an oral gavage for 10 mice, blood samples were collected at 0.25, 0.75, 2, and 8 h from 5 mice and at 0.5, 1, 4, and 24 h from another 5 mice. Ten mice in each group were administered 5 mg/kg or 15 mg/kg of 2-QBA using an oral gavage and blood was drawn using the same protocol described above. All blood samples were centrifuged at 13,000× g for 1 min and the supernatant plasma (30 μL) was stored at −80 °C until the analysis of the 2-QBA. For the analysis of 2-QBA in the plasma samples, 120 μL of IS solution (berberine 1 ng/mL in acetonitrile) was added to plasma samples (30 μL). The mixture was vigorously vortexed for 5 min and then centrifuged at 13,000× g for 5 min. The supernatant was transferred to autosampler vials. Subsequently, a 3 μL aliquot was injected into the LC-MS/MS system.
WinNonlin 5.1 software (Pharsight Co., Mountain View, CA, USA) was used to calculate the pharmacokinetic parameters. AUClast and AUCinf indicate the areas under the plasma concentration curve from 0 h to the last sample and from 0 h to infinity, respectively; these were estimated using the linear trapezoidal method. T1/2 is the elimination half-life, which is estimated from the elimination coefficient (k) (i.e., 0.693/k), and MRT is the mean residence time. CL is the total clearance, which is calculated by dividing the dose by AUCinf. Vdss is the volume of the distribution at a steady state, calculated from MRTxCL. CLrenal and CLfeces are calculated by dividing the amount excreted in urine and feces by the AUCinf, respectively. CLmetabolism is calculated by subtracting CLrenal and CLfeces from CL. Cmax and Tmax are the maximum plasma concentration and time to reach Cmax, respectively. BA is calculated by dividing the dose-normalized AUCinf for PO administration (AUCinf/PO dose) by the dose-normalized AUCinf for IV administration (AUCinf/IV dose). All data are expressed as the mean ± standard deviation (SD).

[2] = male, ICR, mouse, plasma, PO 2 mg/kg
[3] = male, ICR, mouse, plasma, PO 5 mg/kg
[4] = male, ICR, mouse, plasma, PO 15 mg/kg

## O=C(O)c1ccccc1NC(=O)c1cccc2cccnc12 [2-QBA, 2-(quinoline-8-carboxamido)benzoic acid]
Water solubility
  solubility: 35.6 ± 2.71 µg/mL (≈ 122 µM)
[1]
  mean absorption time (MRTPO–MRTIV): 8.02 h
[1]; PO 2 mg/kg
  AUC24h/dose: 684.2 ± 340.3 ng·h/mL/mg/kg
  AUCinf/dose: 712.7 ± 348.0 ng·h/mL/mg/kg
  BA: 68.3%
[1]; PO 5 mg/kg
  AUC24h/dose: 702.9 ± 169.2 ng·h/mL/mg/kg
  AUCinf/dose: 873.7 ± 186.9 ng·h/mL/mg/kg
  BA: 83.7%
[1]; PO 15 mg/kg
  AUC24h/dose: 705.5 ± 182.3 ng·h/mL/mg/kg
  AUCinf/dose: 734.7 ± 176.3 ng·h/mL/mg/kg
  BA: 70.4%
[1]; [2]
  AUC(0-inf): 1430 ± 696 ng·h/mL
  MRT: 12 ± 4.91 h
  half-life: 7.82 ± 1.76 h
  AUC(0-t): 1370 ± 680 ng·h/mL
  Cmax: 283 ± 174 ng/mL
[1]; [3]
  AUC(0-inf): 4370 ± 934 ng·h/mL
  MRT: 13.7 ± 3.14 h
  half-life: 9.91 ± 1.92 h
  AUC(0-t): 3510 ± 846 ng·h/mL
  Cmax: 752 ± 319 ng/mL
[1]; [4]
  AUC(0-inf): 11000 ng·h/mL
  MRT: 7.04 ± 0.76 h
  half-life: 5.58 ± 1.24 h
  AUC(0-t): 10600 ng·h/mL
  Cmax: 2460 ± 696 ng/mL
[1]; male, ICR, mouse, plasma, PO 2.0, 5.0 and 15 mg/kg, read-out: absolute oral bioavailability (BA) range
  bioavailability: 68.3 to 83.7%
[1]; male, ICR, mouse, plasma, 2 mg/kg, PO 2 mg/kg, read-out: Tmax,1
  Tmax: 0.2 ± 0.11 h
[1]; male, ICR, mouse, plasma, 2 mg/kg, PO 2 mg/kg, read-out: Tmax,2
  Tmax: ~5.6 h
[1]; male, ICR, mouse, plasma, 5 mg/kg, PO 5 mg/kg, read-out: Tmax,1
  Tmax: 0.25 h
[1]; male, ICR, mouse, plasma, 15 mg/kg, PO 15 mg/kg, read-out: Tmax,1
  Tmax: 0.3 ± 0.11 h
[1]; male, ICR, mouse, plasma, PO 2-15 mg/kg, read-out: Tmax,1 (range over doses)
  Tmax: 0.2 to 0.3 h
[1]; male, ICR, mouse, plasma, PO 2-15 mg/kg, read-out: Tmax,2 (range over doses)
  Tmax: 3.5 to 5.6 h
